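1) Cells in 96-well plates. 2) Compound, 48 h, 5 concentrations. 3) Linear interpolation between surrounding doses. 4) Unreached endpoint = highest concentration. TGI: total growth inhibition.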
What was measured:
Assay in all cases: NCI tumour cell line growth inhibition, 48 h
NCI-H226 lung = system: NCI-H226 lung
OVCAR-3 ovarian = system: OVCAR-3 ovarian
HL-60(TB) leukemia = system: HL-60(TB) leukemia
IGROV1 ovarian = system: IGROV1 ovarian
CAKI-1 renal = system: CAKI-1 renal
MDA-MB-435 = system: MDA-MB-435
MOLT-4 leukemia = system: MOLT-4 leukemia
RPMI-8226 leukemia = system: RPMI-8226 leukemia
HCT-116 colon = system: HCT-116 colon
HT29 colon = system: HT29 colon
NCI-H460 lung = system: NCI-H460 lung
PC-3 prostate = system: PC-3 prostate
A498 renal = system: A498 renal
UO-31 renal = system: UO-31 renal
MCF7 breast = system: MCF7 breast
LOX IMVI melanoma = system: LOX IMVI melanoma
NCI-H522 lung = system: NCI-H522 lung
KM12 colon = system: KM12 colon
SF-268 CNS = system: SF-268 CNS
SF-295 CNS = system: SF-295 CNS
OVCAR-4 ovarian = system: OVCAR-4 ovarian
SF-539 CNS = system: SF-539 CNS
786-0 renal = system: 786-0 renal
HCT-15 colon = system: HCT-15 colon
HCC-2998 colon = system: HCC-2998 colon
HOP-62 NSCLC = system: HOP-62 NSCLC
SK-OV-3 ovarian = system: SK-OV-3 ovarian
RXF 393 renal = system: RXF 393 renal
CCRF-CEM leukemia = system: CCRF-CEM leukemia
MALME-3M melanoma = system: MALME-3M melanoma
MDA-N = system: MDA-N
OVCAR-8 ovarian = system: OVCAR-8 ovarian
K-562 leukemia = system: K-562 leukemia
TK-10 renal = system: TK-10 renal
NCI-H23 lung = system: NCI-H23 lung
EKVX NSCLC = system: EKVX NSCLC
T-47D breast = system: T-47D breast
HS 578T breast = system: HS 578T breast
SNB-75 CNS = system: SNB-75 CNS
ACHN renal = system: ACHN renal
UACC-62 melanoma = system: UACC-62 melanoma
A549 NSCLC = system: A549 NSCLC
SN12C renal = system: SN12C renal
U251 CNS = system: U251 CNS
SK-MEL-2 melanoma = system: SK-MEL-2 melanoma
UACC-257 melanoma = system: UACC-257 melanoma
DU-145 prostate = system: DU-145 prostate
SK-MEL-5 melanoma = system: SK-MEL-5 melanoma
HOP-92 NSCLC = system: HOP-92 NSCLC
M14 melanoma = system: M14 melanoma
OVCAR-5 ovarian = system: OVCAR-5 ovarian
SR leukemia = system: SR leukemia
SNB-19 CNS = system: SNB-19 CNS
SK-MEL-28 melanoma = system: SK-MEL-28 melanoma
MDA-MB-231 breast = system: MDA-MB-231 breast
COLO 205 colon = system: COLO 205 colon
NCI/ADR-RES ovarian = system: NCI/ADR-RES ovarian
BT-549 breast = system: BT-549 breast
SW-620 colon = system: SW-620 colon

Measured: TGI

O=[N+]([O-])c1ccc2[nH]c(=S)[nH]c(=S)c2c1
not listed: BT-549 breast | SW-620 colon
> 100 µM: all other assays above

CN(CCSCCN(C)C(=O)OC(C)(C)C)C(=O)OC(C)(C)C
not listed: NCI-H226 lung | HL-60(TB) leukemia | RPMI-8226 leukemia | A498 renal | RXF 393 renal | T-47D breast
> 100 µM: all other assays above

[N-]=[N+]=Nc1c([N+](=O)[O-])c(=O)n(-c2ccccc2)c2ccccc12
47.1 µM: SF-539 CNS
43.9 µM: LOX IMVI melanoma
51.3 µM: HCT-116 colon
60.7 µM: NCI-H23 lung
47 µM: MDA-MB-435
92.4 µM: CCRF-CEM leukemia
79.7 µM: NCI/ADR-RES ovarian
86.9 µM: HOP-92 NSCLC
44.2 µM: TK-10 renal
68.1 µM: SNB-75 CNS
64.8 µM: K-562 leukemia
59 µM: UACC-62 melanoma
64.5 µM: EKVX NSCLC
59.1 µM: MOLT-4 leukemia
62.9 µM: SN12C renal
59.5 µM: SK-MEL-5 melanoma
82.6 µM: SR leukemia
67 µM: MCF7 breast
35 µM: MALME-3M melanoma
96.9 µM: NCI-H226 lung
64.6 µM: HCT-15 colon
32.2 µM: UO-31 renal
43.4 µM: 786-0 renal
49.4 µM: OVCAR-4 ovarian
38.9 µM: RXF 393 renal
48.9 µM: OVCAR-8 ovarian
88.4 µM: IGROV1 ovarian
42.3 µM: COLO 205 colon
72.1 µM: HS 578T breast
56.2 µM: RPMI-8226 leukemia
83.9 µM: PC-3 prostate
59.2 µM: MDA-MB-231 breast
80.5 µM: SK-MEL-28 melanoma
56.3 µM: CAKI-1 renal
73.1 µM: M14 melanoma
85.5 µM: ACHN renal
22.7 µM: OVCAR-3 ovarian
58.4 µM: SW-620 colon
95.5 µM: SF-295 CNS
83.2 µM: MDA-N
59.6 µM: SF-268 CNS
52.5 µM: SK-MEL-2 melanoma
49.3 µM: U251 CNS
not listed: HL-60(TB) leukemia | BT-549 breast
> 100 µM: all other assays above

Source: PubChem BioAssay (NCI)
